Test results taken from patent US11583575B2, “MHC-bound peptide arrays and methods of use thereof” (Roche Sequencing Solutions, Inc., priority 2016, dated 2023).

Assays:
ESK1 antibody = ESK1 antibody binding specificity to peptide-MHC assemblies for WT1 9mer peptides; details: FIG. 7
From the text: Because the array of peptides on the surface is spatially-ordered, the sequence of every peptide is immediately known. Each amino acid of the 9 amino acid peptide was substituted for each of the 20 possible amino acids to identify those positions within this peptide that are essential for forming a proper peptide-MHCI complex. […] The amino acids A, F, I, L, M, V, W and P are nonpolar amino acids. The amino acids G, S, Y, C, Q, T, N are polar amino acids. The amino acids R, K and H are basic amino acids. The amino acids D and E are acidic amino acids.

HLA-A2 = HLA-A2 (Homo sapiens, UniProt P04439, D140Y/D185E/D98H/E176V/E277Q/G131W/G231S/I119V/I121R/I166T/I218V/N151K/N90K/P208A/P217A/Q86G/Q94H/R138H/R169H); details: binding at pH 6.5 at 4° C. overnight, FIG. 10A/10B
Protocol: Binding was performed at pH 6.5 at 4° C. overnight.

Sequence | ESK1 antibody binding specificity (relative fluorescence intensity) (ESK1 antibody) | peptide-MHC assembly signal, negatively charged HEX-asp-3HEX linker versus standard 5HEX linker (HLA-A2)
RVPGVAPTL | cross-reactive target | 
RLYDYFTRV |  | increase in the peptide-MHC assembly signal
